From PubChem BioAssay (NCI)
Several values for one entry are separate records, joined by “and”; a condition that tells them apart may be missing. Identical values can stand only once.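 Test compounds were applied to cells in 96-well plates for 48 hours at 5 doses. GI50 = concentration required for 50% inhibition of growth. Definition used: TGI = concentration required for complete inhibition of growth.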

Legend:
Assay in all cases: NCI-60 cell line screen, 48 h
786-0 renal = tested on: 786-0 renal
SR leukemia = tested on: SR leukemia
EKVX NSCLC = tested on: EKVX NSCLC
M14 melanoma = tested on: M14 melanoma
LOX IMVI melanoma = tested on: LOX IMVI melanoma
SN12C renal = tested on: SN12C renal
UO-31 renal = tested on: UO-31 renal
SK-MEL-28 melanoma = tested on: SK-MEL-28 melanoma
MALME-3M melanoma = tested on: MALME-3M melanoma
SF-539 CNS = tested on: SF-539 CNS

SMILES | TGI (786-0 renal) | TGI (SR leukemia) | TGI (EKVX NSCLC) | TGI (M14 melanoma) | TGI (LOX IMVI melanoma) | TGI (SN12C renal) | TGI (UO-31 renal) | TGI (SK-MEL-28 melanoma) | TGI (MALME-3M melanoma) | TGI (SF-539 CNS) | GI50 (786-0 renal) | GI50 (SR leukemia) | GI50 (EKVX NSCLC) | GI50 (M14 melanoma) | GI50 (LOX IMVI melanoma) | GI50 (SN12C renal) | GI50 (UO-31 renal) | GI50 (SK-MEL-28 melanoma) | GI50 (MALME-3M melanoma) | GI50 (SF-539 CNS)
C=C(C)C(=O)O[C@H]1[C@H]2[C@H](OC(=O)[C@H]2C)[C@H](O)[C@@H](C)[C@@H]2C=CC(=O)[C@]21C | 5.21 µM | 5.39 µM | 14.8 µM | 38.5 µM | 7.74 µM | 4.96 µM | 15.4 µM | 5.85 µM | 5.54 µM | 16.5 µM | – | – | – | – | – | – | – | – | – | –
CN(C)CCCN1CCc2c([nH]c3ccccc23)C1c1cccnc1 (stereo unspecified) | > 100 µM | > 100 µM | > 100 µM | > 100 µM | > 100 µM | > 100 µM | > 100 µM | > 100 µM | > 100 µM | > 100 µM | – | – | – | – | – | – | – | – | – | –
C[C@H]1[C@H](C)CC[C@]2(C(=O)O)CC[C@]3(C)C(=CC[C@@H]4[C@@]5(C)C/C(=C/c6cccnc6)[C@H](O)C(C)(C)[C@@H]5CC[C@]43C)[C@H]12 | > 100 µM | 82.8 µM | 87.6 µM | 49 µM | 28.1 µM | 97.3 µM | 26.4 µM | 34.6 µM | 51.2 µM | 36.3 µM | 25.9 µM | 20.7 µM | 13.3 µM | 17.7 µM | 13.4 µM | 18.1 µM | 12.5 µM | 13.7 µM | 18.3 µM | 15.6 µM
COc1ccc2c(c1)OC(N(C(C)=O)C(C)=O)=C(C#N)C2c1ccc(F)cc1 (stereo unspecified) | > 100 µM | > 100 µM | > 100 µM | > 100 µM | > 100 µM | > 100 µM | > 100 µM | > 100 µM | > 100 µM | 6.93 µM | 3.52 µM | 0.653 µM | 6.37 µM | 0.482 µM | 3.26 µM | 6.48 µM | 4.19 µM | 9.97 µM | 21.6 µM | 1.55 µM
O=C(CN1CCN(c2ccccc2)CC1)N1CCc2c([nH]c3ccccc23)C1c1cccnc1 (stereo unspecified) | 50.8 µM | > 100 µM | > 100 µM | > 100 µM | > 100 µM | > 100 µM | > 100 µM | > 100 µM | > 100 µM | 57.8 µM | – | – | – | – | – | – | – | – | – | –
Cc1cccc(C(C)C)c1NC(=O)C(=O)CC(=O)c1c(C)n([O-])c2ccccc2[n+]1=O | > 100 µM | 78.5 µM | > 100 µM | 95.3 µM | > 100 µM | 96.7 µM | > 100 µM | > 100 µM | 44.1 µM | 83.8 µM | – | – | – | – | – | – | – | – | – | –
CN(C)C(=S)N=Nc1c(O)[nH]c2ccccc12 | 12.2 µM | 9.38 µM | 11 µM | 9.41 µM | 13.5 µM | 17.9 µM | 6.03 µM | 22.7 µM | 14.2 µM | 8.39 µM | 0.891 µM | 0.429 µM | 0.397 µM | 0.484 µM | 0.46 µM | 0.578 µM | 0.384 µM | 2.57 µM | 1.75 µM | 0.499 µM
Nc1cc(N)c(N)cc1N | 4.99 µM | 7.66 µM | 8.02 µM | 3.37 µM | 3.75 µM | 3.08 µM | 4.6 µM | 3.88 µM | 3.45 µM | 5.88 µM | 2.27 µM | 2.56 µM | 2.7 µM | 1.87 µM | 1.82 µM | 1.6 µM | 1.56 µM | 2.03 µM | 1.79 µM | 2.17 µM
O=C1CC[C@@H](S(=O)(=O)c2ccccc2)[C@@H](/C=C/c2ccccc2)O1 | > 100 µM | > 100 µM | > 100 µM | > 100 µM | > 100 µM | > 100 µM | > 100 µM | > 100 µM | > 100 µM | > 100 µM | – | – | – | – | – | – | – | – | – | –
CC/C=C\C/C=C\C/C=C\CCCCCCCC(=O)OCC | > 100 µM | > 100 µM | > 100 µM | > 100 µM | > 100 µM | > 100 µM | > 100 µM | > 100 µM | > 100 µM | > 100 µM | – | – | – | – | – | – | – | – | – | –
CN(CCOc1ccc(C#N)cc1)CCOc1ccc(C#N)cc1 | > 100 µM | 61 µM | > 100 µM | > 100 µM | > 100 µM | > 100 µM | > 100 µM | > 100 µM | > 100 µM | > 100 µM | > 100 µM | 5.21 µM | 63.2 µM | 78.9 µM | > 100 µM | > 100 µM | 18.7 µM | > 100 µM | > 100 µM | > 100 µM
CC(=O)O[C@@H]1CC2C(C)(C)CCCC2(C)C2=C1C(=O)C(C(C)C)=CC2=O (stereo partly specified) | 6.95 µM | > 100 µM | 6.88 µM | 2.34 µM | 3.48 µM | 4.89 µM | 1.8 µM | 3.43 µM | 4.8 µM | 4.05 µM | 0.781 µM | 0.653 µM | 1.02 µM | 0.46 µM | 1.59 µM | 1.28 µM | 0.519 µM | 0.691 µM | 0.784 µM | 1.17 µM
CCOc1ccc(NCc2cc(OC)c(OC)c(OC)c2)cc1 | > 100 µM | > 100 µM | > 100 µM | > 100 µM | > 84 µM | > 100 µM | > 100 µM | > 100 µM | > 100 µM | 2.95 µM and 3.25 µM | – | – | – | – | – | 1.41 µM and 7.91 µM | – | – | – | –
COc1cc(-c2cn(-c3ccc(Cl)cc3)c(C)c2C(=O)C(F)(F)F)cc(OC)c1OC | > 100 µM | > 100 µM | > 100 µM | > 100 µM | > 100 µM | > 100 µM | > 100 µM | > 100 µM | > 100 µM | > 100 µM | > 100 µM | 4.92 µM | 51.3 µM | > 100 µM | > 100 µM | 12.7 µM | 19.2 µM | > 100 µM | > 100 µM | > 100 µM
CC(=O)n1c2ccccc2c2nc3nc(Oc4ccc(C)cc4)c4ccccc4c3cc21 | > 100 µM | > 100 µM | > 100 µM | > 100 µM | > 100 µM | > 100 µM | > 100 µM | > 100 µM | > 100 µM | > 100 µM | – | – | – | – | – | – | – | – | – | –
CSc1nc2c(nc(N)n2C2OCC(O)C(O)C2O)c(=O)n1C (stereo unspecified) | > 100 µM | > 100 µM | > 100 µM | > 100 µM | > 100 µM | > 100 µM | > 100 µM | > 100 µM | > 100 µM | > 100 µM | – | – | – | – | – | – | – | – | – | –
Cc1cc2c3ccccc3n(C)c2c2c1C(=O)C=CC2=O | 13.4 µM | 38.9 µM | 19 µM | 31.9 µM | 32.9 µM | 35.9 µM | 46.4 µM | 42.7 µM | 45.7 µM | 41.9 µM | – | – | – | – | – | – | – | – | – | –
